Measurements from patent US12435091B2, “RNA-binding protein multimerization inhibitors and methods of use thereof” (THE UAB RESEARCH FOUNDATION, priority 2020, dated 2025).
Several values for one entry are separate records, joined by “and”; a condition that tells them apart may be missing. Equal entries are not always repeated. Where two headings read alike, the source gives them in different places.

Tests used:
[1] = in vivo pharmacokinetic study in mice by ip administration; design: species or system C57Bl/6 mice; conditions: for concentration at 0.167 h / concentration at 0.5 h / Kp at 0.167 h / Kp at 0.5 h / Kp at 1 h / AUC(0-inf) / AUC(0-t) / Cmax / Tmax / MRT inf / half-life / Brain concentration / Plasma concentration / Ratio (Brain/Plasma) / AUCExtrap—obs: mouse; for concentration at 0.167 h / concentration at 0.5 h / Kp at 0.167 h / Kp at 0.5 h / Kp at 1 h / Brain concentration / Plasma concentration / Ratio (Brain/Plasma): 10 mg/kg IP; for AUC(0-inf) / AUC(0-t) / Cmax / Tmax / MRT inf / half-life: C57Bl/6; for MRT inf: read-out: MRTInf_obs
Procedure: The in vivo PK study for SRI-42127 was performed by Pharmaron (Beijing, China); pharmacokinetics were evaluated in the C57Bl/6 mice. […]

brain tissue binding = type: in vitro ADME
HuR = HuR localization (N/C ratio) in LPS-stimulated cultured astrocytes; type: cell-based; conditions: 0.5 μM for 24 hours
Procedure: First, the effect of SRI-42127 on HuR localization in astrocytes was studied. […] Quantification of the N/C HuR ratio using methodology described with microglia was 2.0. With LPS stimulation, there was translocation of HuR to the cytoplasm consistent with astrocyte activation and the N/C ratio decreased to 0.4 (P<0.001). When cells were treated with SRI-42127, this ratio was reversed back to pre-stimulation value (1.9). These findings indicate that SRI-42127 blocks cytoplasmic translocation of HuR in activated astrocytes.

Plasma protein binding = type: in vitro ADME
From the text: Plasma protein binding for Compound 19 was 96.44%.

[2] = system: LPS-induced neuroinflammatory response in the CNS; assay: in vivo LPS mouse model of neuroinflammation; design: species or system mice
Procedure: Administration of LPS intraperitoneally produces an acute neuroinflammatory response in the CNS including activation of microglia with production of inflammatory cytokines and chemokines. This model was used to test the effect of SRI-42127 on attenuating the neuroinflammatory response.
Mice were injected with LPS intraperitoneally (i.p.) and then given SRI-42127 at 15 mg/kg (or vehicle) i.p. starting at 30 min post LPS injection and then three subsequent doses at 6 hours, 12 hours, and 18 hours. Brains were harvested at 24 hours for analysis. To determine the impact of SRI-42127 on HuR localization in microglia in the brain, sections from the hippocampus from 3 vehicle control and 3 SRI-42127 treated mice were examined. Tissue sections were stained with IBA1 and HuR. Quantification methods for HuR localization were similar to immunocytochemistry. Briefly, IBA1+ cells were identified and the outline of the cell was traced with Fiji software. Nuclei were localized by DAPI staining. Nuclear and cytoplasmic HuR immunofluorescence was quantitated to calculate a N/C ratio. In vehicle-treated animals, there was translocation of HuR into the cytoplasm as indicated by a merged yellow signal whereas in SRI-42127 treated mice, there was little to no merged signal. Next, 20-30 IBA1+ cells from sections in 3 control and 3 treated mice were assessed. A 2-fold increase in the N/C ratio of mice treated with SRI-42127 was observed, confirming the effect of the drug as shown in FIG. 18 (bottom).
Next, the activation state of microglia was studied by measuring IBA1 intensity. Sections from the hippocampal region were stained with IBA1 and fluorescence intensity was measured using Fiji software from 5 sections of 3 mice per group. The reviewer was blinded to the identity of the samples.
Finally, the impact of SRI-42127 on infiltration of neutrophils and monocytes into the brain after LPS administration i.p. was assessed. Microglial HuR knockout (KO) mice were also assessed. […]

LN229 glioma cell line = assay: PrestoBlue cell viability assay; type: cell-based; conditions: Homo sapiens, LN-229; LN229, 48 hours of treatment
Procedure: (§1) PrestoBlue cell viability reagent (ThermoFisher Scientific; Waltham, MA) was used for cell viability assays. The inhibitory dose-response data were normalized to the control (treatment with vehicle); the inhibitory dose-response curves, which were fitted by using Boltzmann equation, and the corresponding IC50s were generated by using OriginPro software (OriginLab Corporation, CA).
(§2) The glioma suppressive potentials of the new class of HuR multimerization inhibitors were evaluated by utilizing SRI-41664 and SRI-42127 compounds in several cell-based assays. First, it was confirmed that the SRI-41664 and SRI-42127 compounds are cytotoxic for established and PDGx cell lines. FIG. 5A illustrates the inhibitory dose responses of SRI-41664 and SRI-42127 compounds in the established U251, LN229, and the PDGx XD456 glioma cell lines. […] An HuR-overexpression approach was employed to confirm SRI-42127 inhibitory potency against HuR dimerization.

[3] = system: PDGx XD456 glioma cell line; assay: PrestoBlue cell viability assay; type: cell-based
Procedure: as §1, §2

U251 glioma cell line = assay: PrestoBlue cell viability assay; type: cell-based; conditions: Homo sapiens, U-251, 48 h
Procedure: as §1, §2

[4] = system: inflammatory cytokine mRNAs in astrocytes; assay: inflammatory cytokine mRNAs in LPS-stimulated astrocytes; type: cell-based
Procedure: Next, the impact of SRI-42127 on induction of inflammatory cytokine mRNAs as depicted in FIG. 15, Panel B was assessed. A significant 3-4-fold suppression of mRNA for IL-1β, IL-6, CXCL1, and CCL2 was observed. […] All chemokines were likewise suppressed, including KC, CCL2, CCL3, CCL4, CXCL10, from 2.5 to 8.1-fold.

[5] = 0.167 h, individual animals, 10 mg/kg
[6] = 0.5 h, individual animals, 10 mg/kg
[7] = 1 h, individual animals, 10 mg/kg
[8] = 15 mg/kg i.p., all brain regions at 24 hours

CN(c1ccc2ncc(-c3ccc4cn[nH]c4c3)n2n1)C1CCOCC1 [Compound 19]
concentration at 0.167 h ([1]; C57Bl/6, mouse, brain, ip, 10 mg/kg, 0.167 h, individual animals, read-out: Brain concentration): 1220 ng/g | concentration at 0.5 h ([1]; C57Bl/6, mouse, brain, ip, 10 mg/kg, 0.5 h, individual animals, read-out: Brain concentration): 420 ng/g | Kp ([1]; C57Bl/6, mouse, brain/plasma, ip, 10 mg/kg, mice, ip administration, all time points, read-out: brain/plasma concentration ratio): ~0.4 | Kp at 0.167 h ([1]; C57Bl/6, mouse, brain/plasma, ip, 10 mg/kg, 0.167 h, individual animals, read-out: Ratio (Brain/Plasma)): 0.419 | Kp at 0.167 h ([1]; C57Bl/6, mouse, brain/plasma, ip, 10 mg/kg, 0.167 h, read-out: Ratio (Brain/Plasma) Mean): 0.399 | Kp at 0.5 h ([1]; C57Bl/6, mouse, brain/plasma, ip, 10 mg/kg, 0.5 h, individual animals, read-out: Ratio (Brain/Plasma)): 0.536 | Kp at 0.5 h ([1]; C57Bl/6, mouse, brain/plasma, ip, 10 mg/kg, 0.5 h, read-out: Ratio (Brain/Plasma) Mean): 0.455 | Kp at 1 h ([1]; C57Bl/6, mouse, brain/plasma, ip, 10 mg/kg, 1 h, individual animals, read-out: Ratio (Brain/Plasma)): 0.408 | Kp at 1 h ([1]; C57Bl/6, mouse, brain/plasma, ip, 10 mg/kg, 1 h, read-out: Ratio (Brain/Plasma) Mean): 0.398 | concentration at 0.167 h ([1]; C57Bl/6, mouse, plasma, ip, 10 mg/kg, 0.167 h, individual animals, read-out: Plasma concentration): 2910 ng/mL | concentration at 0.5 h ([1]; C57Bl/6, mouse, plasma, ip, 10 mg/kg, 0.5 h, individual animals, read-out: Plasma concentration): 782 ng/mL | AUC(0-inf) ([1]; 10 mg/kg ip, Brain): 550 ng·h/mL | AUC(0-t) ([1]; 10 mg/kg ip, Brain): 541 ng·h/mL | Cmax ([1]; 10 mg/kg ip, Brain): 1370 ng/mL | Tmax ([1]; 10 mg/kg ip, Brain): 10 min | MRT inf ([1]; 10 mg/kg ip, Brain): 18.8 min | half-life ([1]; 10 mg/kg ip, Brain, read-out: T½ (converted)): 9.6 min | AUC(0-inf) ([1]; 10 mg/kg ip, Plasma): 1340 ng·h/mL | AUC(0-t) ([1]; 10 mg/kg ip, Plasma): 1320 ng·h/mL | Cmax ([1]; 10 mg/kg ip, Plasma): 3460 ng/mL | Tmax ([1]; 10 mg/kg ip, Plasma): 10 min | MRT inf ([1]; 10 mg/kg ip, Plasma): 18.4 min | half-life ([1]; 10 mg/kg ip, Plasma, read-out: T½ (converted)): 9.6 min | half-life ([1]; dose of 10 mg/kg by IP, read-out: half-life (converted)): 9.6 min | brain/plasma concentration ratio ([1]; mice, ip administration, all time points, listed as SRI-42127): 0.42±0.05 | Brain concentration [1, 5]: 1375 ng/g and 1520 ng/g | Plasma concentration [1, 5]: 3450 ng/mL and 4010 ng/mL | Ratio (Brain/Plasma) [1, 5]: 0.379 | Brain concentration [1, 6]: 545 ng/g and 391 ng/g | Plasma concentration [1, 6]: 1430 ng/mL and 870 ng/mL | Ratio (Brain/Plasma) [1, 6]: 0.381 and 0.449 | Brain concentration [1, 7]: 53.0 ng/g and 43.9 ng/g and 19.7 ng/g | Plasma concentration [1, 7]: 130 ng/mL and 104 ng/mL and 53.9 ng/mL | Ratio (Brain/Plasma) [1, 7]: 0.422 and 0.365 | AUCExtrap—obs ([1]; 10 mg/kg ip, Brain): 1.63% | AUCExtrap—obs ([1]; 10 mg/kg ip, Plasma): 1.65% | brain tissue binding (brain tissue binding): 99.13% | recovery (brain tissue binding; brain tissue, relatively low due to instability or high nonspecific binding): 69.6% | N/C HuR ratio (HuR): 1.9 | fraction unbound (Plasma protein binding): 0.0356 | increase in the HuR N/C ratio in microglia ([2]; 15 mg/kg i.p. at 30 min, 6, 12 and 18 hours post LPS, hippocampus at 24 hours): 2 fold | attenuation of infiltrating monocytes [2, 8]: 1.3- to 2 fold | attenuation of infiltrating neutrophils [2, 8]: 2 to 3 fold | IC50 (LN229 glioma cell line): 3.2 ± 0.6 µM | IC50 ([3]; Glioma cell, XD456, 48 hours of treatment): 4 ± 0.6 µM | increase of IC50 for inhibition of cell viability ([3]; XD456, enhancement of HuR-dimer formation approximately by two-fold, 48 hours): 1.9±0.2 fold | IC50 (U251 glioma cell line; U251, 48 hours of treatment, read-out: IC50 cell viability): 2800 ± 600 nM | IC50 (U251 glioma cell line; U251 with dox-inducible HuR-dimerization reporters, after enhancement of HuR-dimer formation by two fold, 48 hours, read-out: IC50 for inhibition of cell viability): 8000 ± 800 nM | IC50 (U251 glioma cell line; U251 with dox-inducible HuR-dimerization reporters, before enhancement of HuR-dimer formation, 48 hours, read-out: IC50 for inhibition of cell viability): 2800 ± 400 nM | suppression of mRNA for IL-1β, IL-6, CXCL1, and CCL2 [4]: 3-4 fold | increase of IL-10 mRNA ([4]; 1.0 μM): ~3 fold
